For this assay, the system named is HT1080 xenografts. In words: BrdU labeling of cells from HT1080 xenografts grown in nude mice. The assay is classed as in vivo, athymic nude mice. The following applies: Day 1, 2, 3; Compound #10 10 mg/kg oral QD, doxorubicin 6 mg/kg IP, bevacizumab 5 mg/kg IP. On the procedure: Experimental Design. HT1080 cells (5×10^6 cells/mouse) were implanted subcutaneously in male athymic nude mice.
The mice were sacrificed 3 hours later, and the tumors collected. A single cell suspension was prepared from the tumor cells. The cells were permeabilized and an antibody to BrdU was used to stain cells that had entered S phase during the labeling period. The proportion of cells actively synthesizing DNA was determined by cell sorting.
On the technique in general: Incorporation of labelled thymidine or its analogues reports DNA synthesis.

The record followed here is patent publication US20120157401A1, “METHODS FOR TREATING NEUROFIBROMATOSIS” (PTC Therapeutics, Inc., priority 2009, published 2012).

Structures are written as SMILES.

As for `COc1ccc(C2c3[nH]c4ccc(Cl)cc4c3CCN2C(=O)Oc2ccc(Cl)cc2)cc1` (racemic) [Compound #10], the “BrdU staining of tumor cells (proportion of cells in S phase)” value is reported as “increased BrdU staining”.
